The target in one experiment is NK1 receptors (Homo sapiens, UniProt P25103). Kind of experiment: in vitro binding to NK1 receptors. As for the experimental part:
(§1) The activity of compounds of the invention were tested in vitro for binding to NK1 and NK2 receptors.

In the next experiment the target is T1, NK2 receptors (Homo sapiens, UniProt P21452).
T1 sequence (P21452 1-398): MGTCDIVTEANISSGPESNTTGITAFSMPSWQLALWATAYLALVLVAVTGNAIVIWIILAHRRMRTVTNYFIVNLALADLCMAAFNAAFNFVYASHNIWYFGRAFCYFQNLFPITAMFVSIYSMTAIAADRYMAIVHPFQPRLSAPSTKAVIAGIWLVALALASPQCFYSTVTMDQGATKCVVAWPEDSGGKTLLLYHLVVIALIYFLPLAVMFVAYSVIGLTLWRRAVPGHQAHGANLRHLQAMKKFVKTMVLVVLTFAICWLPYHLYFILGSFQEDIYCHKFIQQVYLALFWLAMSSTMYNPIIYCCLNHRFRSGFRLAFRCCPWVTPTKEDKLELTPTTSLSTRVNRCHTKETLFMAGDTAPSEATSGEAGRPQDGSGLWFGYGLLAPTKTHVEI
Kind of experiment: in vitro binding to NK2 receptors. The settings on record: for Ki (NK2), % @ 1000: @ 1000 (concentration unit not given). The arrangement: Ki (NK2), % @ 1000: concentration or dose not given beside the values. As to the method: as §1

These results are taken from patent publication US20040138238A1, “Substituted aminopyrimidine compounds as neurokinin antagonists” (priority 2002, published 2004).

Structures are written as SMILES. Read-outs that look alike come from different tables or passages of the source. A value given as a limit tells only on which side of the number the result lay.

Sequence of NK1 receptors (P25103 whole entry): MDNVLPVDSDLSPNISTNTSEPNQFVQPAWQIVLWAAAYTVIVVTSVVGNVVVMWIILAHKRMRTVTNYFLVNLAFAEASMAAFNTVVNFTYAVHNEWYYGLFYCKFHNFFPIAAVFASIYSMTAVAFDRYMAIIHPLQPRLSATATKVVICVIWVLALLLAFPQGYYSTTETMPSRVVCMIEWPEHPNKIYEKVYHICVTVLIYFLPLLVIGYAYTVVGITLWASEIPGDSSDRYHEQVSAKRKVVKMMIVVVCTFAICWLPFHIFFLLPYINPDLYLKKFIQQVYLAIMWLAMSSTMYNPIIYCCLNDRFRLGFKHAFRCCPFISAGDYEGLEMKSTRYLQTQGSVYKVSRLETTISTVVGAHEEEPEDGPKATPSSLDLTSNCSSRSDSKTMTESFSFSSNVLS

In the case of `OC(CNC1CCN(c2ncnc3scc(-c4ccccc4)c23)CC1)COc1ccc(F)cc1F` (centres unmarked) [1-(2,4-Difluoro-phenoxy)-3-[1-(5-phenyl-thieno[2,3-d]pyrimidin-4-yl)-piperidin-4-ylamino]-propan-2-ol], the Ki on NK1 receptors amounted to 0.286 µM. For `COc1ccc(OCC(O)CNC2CCN(c3ncnc4scc(-c5ccccc5)c34)CC2)c(Cl)c1` (centres unmarked) [1-(2-Chloro-4-methoxy-phenoxy)-3-[1-(5-phenyl-thieno[2,3-d]pyrimidin-4-yl)-piperidin-4-ylamino]-propan-2-ol], the Ki at NK1 receptors turned out to be 0.109 µM; on NK2 receptors (unit inferred), 1.57 µM.

For the compound `OC(CNC1CCN(c2ncnc3scc(-c4ccccc4)c23)CC1)COc1ccc(Cl)c(Cl)c1` (centres unmarked) [1-(3,4-Dichloro-phenoxy)-3-[1-(5-phenyl-thieno[2,3-d]pyrimidin-4-yl)-piperidin-4-ylamino]-propan-2-ol], the Ki stood at 0.268 µM on NK1 receptors and 3.39 µM at NK2 receptors (unit inferred). For the compound `OC(CNC1CCN(c2ncnc3scc(-c4ccccc4)c23)CC1)COc1ccc(F)c(F)c1` (centres unmarked) [1-(3,4-Difluoro-phenoxy)-3-[1-(5-phenyl-thieno[2,3-d]pyrimidin-4-yl)-piperidin-4-ylamino]-propan-2-ol], on NK1 receptors, the Ki stood at 0.075 µM. On NK2 receptors, the “Ki (NK2), % @ 1000” value was found to be 28% @. With `COc1ccc(OCC(O)CNC2CCN(c3ncnc4scc(-c5ccccc5)c34)CC2)cc1OC` (centres unmarked) [1-(3,4-Dimethoxy-phenoxy)-3-[1-(5-phenyl-thieno[2,3-d]pyrimidin-4-yl)-piperidin-4-ylamino]-propan-2-ol], the Ki on NK1 receptors came to 0.126 µM; on NK2 receptors (unit inferred), 6.25 µM. For `OC(CNC1CCN(c2ncnc3scc(-c4ccccc4)c23)CC1)COc1cc(C(F)(F)F)cc(C(F)(F)F)c1` (centres unmarked) [1-(3,5-Bis-trifluoromethyl-phenoxy)-3-[1-(5-phenyl-thieno[2,3-d]pyrimidin-4-yl)-piperidin-4-ylamino]-propan-2-ol], the Ki at NK1 receptors is 1.31 µM; on NK2 receptors (unit inferred), above 1 µM.

Turning to `OC(CNC1CCN(c2ncnc3scc(-c4ccccc4)c23)CC1)COc1cc(F)cc(F)c1` (centres unmarked) [1-(3,5-Difluoro-phenoxy)-3-[1-(5-phenyl-thieno[2,3-d]pyrimidin-4-yl)-piperidin-4-ylamino]-propan-2-ol], the Ki on NK1 receptors was determined as 0.272 µM. The “Ki (NK2), % @ 1000” value on NK2 receptors amounted to 21% @. With `OC(CNC1CCN(c2ncnc3scc(-c4ccccc4)c23)CC1)COc1ccc(F)c(Cl)c1` (centres unmarked) [1-(3-Chloro-4-fluoro-phenoxy)-3-[1-(5-phenyl-thieno[2,3-d]pyrimidin-4-yl)-piperidin-4-ylamino]-propan-2-ol], at NK1 receptors, the Ki amounted to 0.137 µM. The compound `COc1cc(OCC(O)CNC2CCN(c3ncnc4scc(-c5ccccc5)c34)CC2)ccc1Cl` (centres unmarked) [1-(4-Chloro-3-methoxy-phenoxy)-3-[1-(5-phenyl-thieno[2,3-d]pyrimidin-4-yl)-piperidin-4-ylamino]-propan-2-ol] gave a Ki on NK1 receptors of 0.126 µM. The “Ki (NK2), % @ 1000” value on NK2 receptors is 47% @.

`COc1ccc(OCC(O)CNC2CCN(c3ncnc4scc(-c5ccccc5)c34)CC2)cc1` (centres unmarked) [1-(4-Methoxy-phenoxy)-3-[1-(5-phenyl-thieno[2,3-d]pyrimidin-4-yl)-piperidin-4-ylamino]-propan-2-ol]: the Ki at NK1 receptors amounted to 0.053 µM; at NK2 receptors, 1.7 µM.

As for `OC(CNC1CCN(c2ncnc3sccc23)CC1)COc1ccc2c(c1)OCO2` (centres unmarked) [1-(Benzo[1,3]dioxol-5-yloxy)-3-(1-thieno[2,3-d]pyrimidin-4-yl-piperidin-4-ylamino)-propan-2-ol], the Ki on NK1 receptors was determined as 1.83 µM. Compound `Cc1csc2ncnc(N3CCC(NCC(O)COc4ccc5c(c4)OCO5)CC3)c12` (centres unmarked) [1-(Benzo[1,3]dioxol-5-yloxy)-3-[1-(5-methyl-thieno[2,3-d]pyrimidin-4-yl)-piperidin-4-ylamino]-propan-2-ol] gave a Ki on NK1 receptors of 0.868 µM.

In the case of `OC(CNC1CCN(c2ncnc3scc(-c4ccccc4)c23)CC1)COc1ccc2c(c1)OCO2` (centres unmarked) [1-(Benzo[1,3]dioxol-5-yloxy)-3-[1-(5-phenyl-thieno[2,3-d]pyrimidin-4-yl)-piperidin-4-ylamino]-propan-2-ol], the figures for the Ki at NK1 receptors and at NK2 receptors (unit inferred) were 0.0076 µM and above 10 µM, respectively. Compound `OC(CNC1CCN(c2ncnc3scc(-c4ccccc4)c23)CC1)COc1ccc(OC(F)(F)F)cc1` (centres unmarked) [1-[1-(5-Phenyl-thieno[2,3-d]pyrimidin-4-yl)-piperidin-4-ylamino]-3-(4-trifluoromethoxy-phenoxy)-propan-2-ol] displayed a Ki at NK1 receptors of 0.015 µM. Also, the “Ki (NK2), % @ 1000” value at NK2 receptors came out at 49% @. At NK1 receptors, `Fc1ccc(OCC2CN(C3CCN(c4ncnc5scc(-c6ccccc6)c45)CC3)CCO2)cc1` (centres unmarked) [4-{4-[2-(4-Fluoro-phenoxymethyl)-morpholin-4-yl]-piperidin-1-yl}-5-phenyl-thieno[2,3-d]pyrimidine] displayed a Ki of 0.472 µM. Compound `c1ccc(-c2csc3ncnc(N4CCC(N5CCOC(COc6ccc7c(c6)OCO7)C5)CC4)c23)cc1` (centres unmarked) [4-{4-[2-(Benzo[1,3]dioxol-5-yloxymethyl)-morpholin-4-yl]-piperidin-1-yl}-5-phenyl-thieno[2,3-d]pyrimidine] returned a Ki on NK1 receptors of 1.86 µM.

The compound `O=C1COC(COc2ccc3c(c2)OCO3)CN1C1CCN(c2ncnc3scc(-c4ccccc4)c23)CC1` (centres unmarked) [6-(Benzo[1,3]dioxol-5-yloxymethyl)-4-[1-(5-phenyl-thieno[2,3-d]pyrimidin-4-yl)-piperidin-4-yl]-morpholin-3-one] came in with a Ki at NK1 receptors of 1.32 µM. `OC(CNC1CCN(c2ncnc3scc(-c4ccccc4)c23)CC1)COCc1ccccc1` (centres unmarked) [(3-Benzyloxy-2-hydroxy-propyl)-[1-(5-phenyl-thieno[2,3-d]pyrimidin-4-yl)-piperidin-4-yl]-ammonium; chloride]: the Ki on NK1 receptors worked out at 0.141 µM; on NK2 receptors, 2.4 µM. At NK1 receptors, `Cl.OC(CNC1CCN(c2ncnc3scc(-c4ccccc4)c23)CC1)COc1ccc(C(F)(F)F)cc1` (centres unmarked) [[2-Hydroxy-3-(4-trifluoromethyl-phenoxy)-propyl]-[1-(5-phenyl-thieno[2,3-d]pyrimidin-4-yl)-piperidin-4-yl]-ammonium; chloride] showed an inhibitory constant (Ki) of 0.053 µM. For the same compound, the “Ki (NK2), % @ 1000” value at NK2 receptors was 14% @. `Cl.OC(CNC1CCN(c2ncnc3scc(-c4ccccc4)c23)CC1)COc1ccc(Cl)c(Cl)c1` (centres unmarked) [[3-(3,4-Dichloro-phenoxy)-2-hydroxy-propyl]-[1-(5-phenyl-thieno[2,3-d]pyrimidin-4-yl)-piperidin-4-yl]-ammonium; chloride] gave a Ki at NK1 receptors of 0.02 µM. For the same compound, on NK2 receptors, the “Ki (NK2), % @ 1000” value turned out to be 28% @.

In the case of `OC(CNC1CCN(c2ncnc3scc(-c4ccccc4)c23)CC1)COc1ccc(Cl)cc1` (centres unmarked) [[3-(4-Chloro-phenoxy)-2-hydroxy-propyl]-[1-(5-phenyl-thieno[2,3-d]pyrimidin-4-yl)-piperidin-4-yl]-ammonium; chloride], the figures for the Ki at NK1 receptors and on NK2 receptors (unit inferred) were 0.91 µM and above 10 µM, respectively.
